The source of these data is US6277859A, “Morphinan derivative and its pharmaceutical applications” (priority 1992, dated 2001).

One assay concerns the target T1, κ receptor (Mus musculus, UniProt P33534).
T1 construct: The isolated vas deference was filled with Krebes-Henseleit solution; from tissue; host or cells: isolated vas deferens of male ddy mouse
Put plainly: Ke with norBNI in isolated mouse vas deference preparation. The note with it: for Ke norBNI: norBNI (κ). Type of assay: cell-based, mouse (male ddy). The procedure:
(§1) A male ddy mouse was used in this test. The isolated vas deference was filled with Krebes-Henseleit solution (NaCl 118 mM; KCl 4.7 mM; CaCl2 2.5 mM; KH2 PO4 1.1 mM; NaHCO3 25 mM; and glucose 10 mM) warmed to 37° C. and suspended in a Magnus tube ventilated with 5% carbon dioxide and 95% oxygen. Electrical stimulus was performed at 0.1 Hz for 5.0 ms by means of ring-shaped platinum electrodes located above and below. Tissue contractions were recorded on a polygraph using an isometric transducer.
(§2) Then after adequately washing with nutrient solution and the contraction reaction stabilized, naloxone, a μ […], NTI, a δ […], or norBNI, a κ […], were added and the test compound was again cumulatively added after roughly 20 minutes. The Ke value was calculated using the following calculation formula from the difference in the efficacies of both agonists.
(§3) Ke=[Conc. of added agonist]/(IC50 ratio-1)
(§4) IC50 ratio IC50 in the presence of agonist/IC50 in the absence of agonist

The test system of a further assay is Wistar rats. Description: Evaluation of diuretic action. Format: in vivo, rat (male Wistar). The following applies: sc, rat, s.c., urine output for 5 h after 20 ml/kg saline oral; for ED200: read-out: ED200, diuretic action (dose giving urine output of 200, non-dosed group = 100). The procedure:
Evaluation of Diuretic Action
7-8 week old male Wistar rats were used in this test after prohibiting from drinking water for 1 hour before testing. After discharging any urine accumulated in the bladder by gently stimulating the lower abdomens of the animals, the drug was administered subcutaneously. After 30 minutes, the animals were then forcibly given 20 ml/kg of physiological saline orally. The animals were then placed in metabolic cages immediately after administration of the drug (2 animals/cage) and urine output for 5 hours after loading with physiological saline was measured. Drug efficacy was expressed in the form of those doses resulting in urine outputs of 200 and 500, respectively, when the urine output of a non-dosed group was taken to be 100. Those doses were expressed as the ED200 and ED500 values, respectively.

A further assay deals with T2, μ receptor (Mus musculus, UniProt P42866).
T2 construct: The isolated vas deference was filled with Krebes-Henseleit solution; from tissue; host or cells: isolated vas deferens of male ddy mouse
T2 sequence (P42866 whole entry): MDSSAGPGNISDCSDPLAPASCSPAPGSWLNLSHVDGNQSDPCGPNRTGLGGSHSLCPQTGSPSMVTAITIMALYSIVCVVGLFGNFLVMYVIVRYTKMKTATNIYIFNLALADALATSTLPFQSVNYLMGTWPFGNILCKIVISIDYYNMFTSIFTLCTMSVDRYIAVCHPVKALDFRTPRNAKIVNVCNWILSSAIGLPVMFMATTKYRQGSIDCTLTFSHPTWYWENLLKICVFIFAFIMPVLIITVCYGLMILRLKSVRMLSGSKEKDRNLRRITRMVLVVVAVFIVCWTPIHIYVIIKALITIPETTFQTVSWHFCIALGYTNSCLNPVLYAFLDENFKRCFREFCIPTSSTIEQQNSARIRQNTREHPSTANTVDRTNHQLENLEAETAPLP
Put plainly: Ke with naloxone in isolated mouse vas deference preparation. Format: cell-based, mouse (male ddy). The procedure: as §1, §2, §3, §4

A further assay deals with T3, δ receptor (Mus musculus, UniProt P32300).
T3 construct: The isolated vas deference was filled with Krebes-Henseleit solution; from tissue; host or cells: isolated vas deferens of male ddy mouse
T3 sequence (P32300 whole entry): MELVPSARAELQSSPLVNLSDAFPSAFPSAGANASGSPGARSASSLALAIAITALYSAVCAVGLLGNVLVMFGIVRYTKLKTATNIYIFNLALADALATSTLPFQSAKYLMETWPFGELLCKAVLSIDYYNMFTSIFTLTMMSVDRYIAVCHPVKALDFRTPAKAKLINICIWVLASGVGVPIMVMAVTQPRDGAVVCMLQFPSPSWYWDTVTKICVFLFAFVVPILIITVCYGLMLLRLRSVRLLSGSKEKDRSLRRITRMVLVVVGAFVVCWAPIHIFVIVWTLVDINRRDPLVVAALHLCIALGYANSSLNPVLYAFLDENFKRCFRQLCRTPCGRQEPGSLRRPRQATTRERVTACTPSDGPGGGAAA
Put plainly: Ke with NTI in isolated mouse vas deference preparation. Type of assay: cell-based, mouse (male ddy). The following applies: for Ke NTI: NTI (δ). As to the method:
as §1, §2, §3, §4

For the next assay, the system named is ddY mice. Description: animal or person. Type of assay: in vivo, mouse (ddY). The following applies: mouse, s.c. 15 min before i.p. 0.6% acetic acid. The procedure:
Analgesic Activity Test Using the Acetic Acid-induced Writhing Method
5 week old ddY mice were used in this test. After intraperitoneal administration of 0.1 ml of 0.6% aqueous acetic acid per 10 g of body weight, the number of writhing reactions that occurred in 10 minutes starting 10 minutes after administration was evaluated for the indicator. The test drug was administered subcutaneously into the backs of the animals 15 minutes before administration of acetic acid.

The subject of assay [1] is isolated mouse vas deference. Description: Opioid activity test using the isolated mouse vas deference preparation (electrically stimulated contractions). Format: cell-based, mouse (male ddy). The following applies: suppression of electrically stimulated contractions. As to the method:
Opioid Activity Test Using the Isolated Mouse Vas Deference Preparation
as §1, §2

pIC50: −log10 of the molar value. Where a name gives a salt, the structure may show the parent alone.

T1 sequence (P33534 whole entry): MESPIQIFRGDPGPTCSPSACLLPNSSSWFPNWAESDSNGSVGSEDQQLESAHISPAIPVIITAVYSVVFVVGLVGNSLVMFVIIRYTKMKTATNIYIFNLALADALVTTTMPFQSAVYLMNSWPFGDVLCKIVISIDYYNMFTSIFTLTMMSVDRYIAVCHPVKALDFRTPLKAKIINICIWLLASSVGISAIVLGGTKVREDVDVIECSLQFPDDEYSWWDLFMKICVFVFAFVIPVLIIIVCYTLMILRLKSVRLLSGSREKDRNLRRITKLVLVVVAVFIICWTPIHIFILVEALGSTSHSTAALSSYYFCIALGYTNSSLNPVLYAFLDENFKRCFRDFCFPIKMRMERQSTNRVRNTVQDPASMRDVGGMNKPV

`CN(C(=O)OCc1ccccc1)[C@H]1CC[C@@]2(O)[C@H]3Cc4ccc(O)c5c4[C@@]2(CCN3CC2CC2)[C@H]1O5` [Compound 42, 17-cyclopropylmethyl-3,14β-dihydroxy-4,5α-epoxy-6α-(N-methylbenzyloxycarbamido)morphinan.tartrate]: at κ receptor, the “selective agonist for κ receptors (in words)” value is “selective agonists for κ receptors” and the “Ke norBNI” value is given as 0.905 nM. In the assay with Wistar rats (read-out: ED500, diuretic action (dose giving urine output of 500, non-dosed group = 100)), the ED500 was determined as 6.1 µg/kg. Also, the ED200 in the assay with Wistar rats worked out at 0.85 µg/kg. The “Ke Naloxone” value on μ receptor is recorded as 186 nM. On δ receptor, the “Ke NTI” value amounted to 63.5 nM. Besides, in the assay with ddY mice, the “ED50, acetic acid writhing” value turned out to be 1.36 µg/kg.

Turning to `CN(C(=O)CSc1ccccc1)[C@H]1CC[C@@]2(O)[C@H]3Cc4ccc(O)c5c4[C@@]2(CCN3CC2CC2)[C@H]1O5` [Compound 45, 17-cyclopropylmethyl-4,5α-epoxy-3,14,β-dihydroxy-6α-(N-methylthiophenoxyacetamido)morphinan.tartrate], at κ receptor, the “selective agonist for κ receptors (in words)” value was “selective agonists for κ receptors” and the “Ke norBNI” value worked out at 0.416 nM. Besides, the ED200 in the assay with Wistar rats was 8.1 µg/kg. In addition, the “Ke Naloxone” value at μ receptor is listed as 26.5 nM. Moreover, the “Ke NTI” value on δ receptor was 135 nM. Besides, the “ED50, acetic acid writhing” value in the assay on ddY mice worked out at 3.8 µg/kg.

With `CCCCOC(=O)N(C)[C@H]1CC[C@@]2(O)[C@H]3Cc4ccc(O)c5c4[C@@]2(CCN3CC2CC2)[C@H]1O5` [Compound 47, 17-cyclopropylmethyl-4,5α-epoxy-3,14β-dihydroxy-6α-(N-methylbutyroxycarbamido)morphinan.tartrate], at κ receptor, the “selective agonist for κ receptors (in words)” value is given as “selective agonists for κ receptors” and the “Ke norBNI” value turned out to be 0.140 nM. Moreover, the ED200 with Wistar rats is 1.6 µg/kg. The “Ke Naloxone” value at μ receptor is given as 63.5 nM. In addition, the “Ke NTI” value on δ receptor was determined as 10.4 nM. Besides, in the assay on ddY mice, the “ED50, acetic acid writhing” value was 0.52 µg/kg.

For orientation: pIC50 means the negative decadic logarithm of the IC50, by convention in mol/L. A low value points to a large IC50. Take `CN(C(=O)/C=C/c1cccc(C(F)(F)F)c1)[C@@H]1CC[C@@]2(O)[C@H]3Cc4ccc(O)c5c4[C@@]2(CCN3CC2CC2)[C@H]1O5` [Compound 60, 17-cyclopropylmethyl-3,14β-dihydroxy-4,5α-epoxy-60-(N-methyl-3-trifluoromethylcinnaiamido)morphinan.tartrate]: at κ receptor, the “selective agonist for κ receptors (in words)” value is listed as “selective agonists for κ receptors” and the “Ke norBNI” value is listed as 3.20 nM. For the same compound, on δ receptor, the “Ke NTI” value was 291 nM. For the same compound, in assay [1], the pIC50 is 9.33.

The ED50 is the midpoint of the dose-response relation. As to `COc1cccc(/C=C/C(=O)N(C)[C@@H]2CC[C@@]3(O)[C@H]4Cc5ccc(O)c6c5[C@@]3(CCN4CC3CC3)[C@H]2O6)c1` [Compound 63], at κ receptor, the “selective agonist for κ receptors (in words)” value is “selective agonists for κ receptors” and the “Ke norBNI” value was 1.60 nM. In the assay on Wistar rats, the ED200 stood at 3.8 µg/kg. Further, the “Ke Naloxone” value on μ receptor turned out to be 60.9 nM. Moreover, the “Ke NTI” value at δ receptor is given as 96.9 nM. Moreover, the pIC50 in assay [1] is 9.13. In addition, the ED50 in the assay on ddY mice (sc, read-out: ED50, acetic acid writhing) came out at 1.1 µg/kg.

Turning to `CN(C(=O)/C=C/C1CCCCC1)[C@@H]1CC[C@@]2(O)[C@H]3Cc4ccc(O)c5c4[C@@]2(CCN3CC2CC2)[C@H]1O5` [Compound 68, 17-cyclopropylmethyl-3,14,β-dihydroxy-4,5α-epoxy-6β-(N-methyl-3-cyclohexylacrylamido) morphinan.tartrate], on κ receptor, the “selective agonist for κ receptors (in words)” value was “selective agonists for κ receptors” and the “Ke norBNI” value is reported as 1.08 nM. Also, the ED200 in the assay on Wistar rats was found to be 1.6 µg/kg. The “Ke Naloxone” value on μ receptor worked out at 5710 nM. Further, the “Ke NTI” value at δ receptor was 143 nM. This compound showed a negative logarithm of the IC50 (pIC50) in assay [1] of 9.34.

For `Cc1cccc(/C=C/C(=O)N(C)[C@@H]2CC[C@@]3(O)[C@H]4Cc5ccc(O)c6c5[C@@]3(CCN4CC3CC3)[C@H]2O6)c1` [Compound 69, 17-cyclopropylmethyl-3,14β-dihydroxy-4,5α-epoxy-6β-(N-methyl-3-methylcinnamamido)morphinan.hydrochloride], at κ receptor, the “selective agonist for κ receptors (in words)” value is “selective agonists for κ receptors” and the “Ke norBNI” value worked out at 1.95 nM. The “Ke Naloxone” value on μ receptor worked out at 1780 nM. Further, at δ receptor, the “Ke NTI” value came out at 64.5 nM. This compound also gave a pIC50 in assay [1] of 9.49.

For `CN(C(=O)/C=C/c1cccc(F)c1)[C@H]1CC[C@@]2(O)[C@H]3Cc4ccc(O)c5c4[C@@]2(CCN3CC2CC2)[C@H]1O5` [Compound 96, 17-cyclopropylmethyl-3,14β-dihydroxy-4,5α-epoxy-6α-(N-methyl-3-fluorocinnamamido)morphinan.tartrate], the “Ke norBNI” value at κ receptor was found to be 4.21 nM. The ED200 in the assay on Wistar rats turned out to be 1.3 µg/kg. Further, on μ receptor, the “Ke Naloxone” value is reported as 32.5 nM. In addition, at δ receptor, the “selective agonist for δ receptors (in words)” value is on record as “selective agonists for δ receptors” and the “Ke NTI” value amounted to 1.61 nM. Besides, in the assay with ddY mice, the “ED50, acetic acid writhing” value is 0.86 µg/kg.

As to `CN(C(=O)CC(=O)c1ccccc1)[C@H]1CC[C@@]2(O)[C@H]3Cc4ccc(O)c5c4[C@@]2(CCN3CC2CC2)[C@H]1O5` [Compound 98, 17-cyclopropylmethyl-3,14β-dihydroxy-4,5α-epoxy-6α-(N-methylbenzoylacetamido)morphinan.tartrate], on κ receptor, the “selective agonist for κ receptors (in words)” value is reported as “selective agonists for κ receptors” and the “Ke norBNI” value is on record as 1.35 nM. Also, the ED200 in the assay with Wistar rats was found to be 6.5 µg/kg. The “ED50, acetic acid writhing” value in the assay with ddY mice turned out to be 6.8 µg/kg.

With `CN(C(=O)/C=C/c1ccccc1)[C@@H]1CC[C@@]2(O)[C@H]3Cc4ccc(O)c5c4[C@@]2(CCN3CC2CC2)[C@H]1O5` [Compound 99, 17-cyclopropylmethyl-3,14β-dihydroxy-4,5α-epoxy-6β-(N-methylcinnamamido)morphinan.hydrochloride], on κ receptor, the “selective agonist for κ receptors (in words)” value is “selective agonists for κ receptors” and the “Ke norBNI” value is reported as 0.652 nM. Also, the ED200 with Wistar rats turned out to be 1.1 µg/kg. For the same compound, the “Ke Naloxone” value at μ receptor turned out to be 94.5 nM. The “ED50, acetic acid writhing” value with ddY mice stood at 1.8 µg/kg.

Regarding `CCC/C=C/C(=O)N(C)[C@@H]1CC[C@@]2(O)[C@H]3Cc4ccc(O)c5c4[C@@]2(CCN3CC2CC2)[C@H]1O5` [Compound 100, 17-cyclopropylmethyl-3,14β-dihydroxy-4,5α-epoxy-6β-(N-methyl-trans-2-hexenamido)morphinan.tartrate], at κ receptor, the “selective agonist for κ receptors (in words)” value is “selective agonists for κ receptors” and the “Ke norBNI” value worked out at 0.0717 nM. The “Ke Naloxone” value on μ receptor was determined as 1797 nM. In addition, the negative-log IC50 (pIC50) in assay [1] was 9.19.

For `CN(C(=O)/C=C/c1cccc(F)c1)[C@@H]1CC[C@@]2(O)[C@H]3Cc4ccc(O)c5c4[C@@]2(CCN3CC2CC2)[C@H]1O5` [Compound 102, 17-cyclopropylmethyl-3,14β-dihydroxy-4,5α-epoxy-6β-(N-methyl-3-fluorocinnamamido)morphinan.tartrate], on κ receptor, the “selective agonist for κ receptors (in words)” value is listed as “selective agonists for κ receptors” and the “Ke norBNI” value stood at 2.37 nM. In the assay on Wistar rats, the ED200 turned out to be 1.4 µg/kg. Further, at δ receptor, the “Ke NTI” value is 276 nM. This compound also gave a negative logarithm of the IC50 (pIC50) in assay [1] of 8.80.

As for `CC(=O)Oc1ccc2c3c1O[C@H]1[C@H](N(C)C(=O)/C=C/c4ccccc4)CC[C@@]4(O)[C@@H](C2)N(CC2CC2)CC[C@]314` [Compound 140, 17-Cyclopropylmethyl-3-acetoxy-14β-hydroxy-4,5α-epoxy-6β-(N-methylcinnamamido)morphinan.tartrate], on κ receptor, the “selective agonist for κ receptors (in words)” value was “selective agonists for κ receptors” and the “Ke norBNI” value came to 1.06 nM. For the same compound, at μ receptor, the “Ke Naloxone” value is given as 320 nM. In addition, at δ receptor, the “Ke NTI” value is reported as 261 nM. Further, the “ED50, acetic acid writhing” value with ddY mice is 3.4 µg/kg.
